# Reference: US20260137819A1 (Radionetics Oncology, Inc., priority 2022, published 2026)
# Starred links: 1 amine or outer side, 2 acyl side, 3 side chain; linkers in the order of their positions; H or OH if unused. Non-standard residues stand in square brackets, D forms with d. Residues, ends and D or L forms follow the SMILES beside them. Groups on a side chain read outwards from the residue. *: point of attachment. X1 = COc1cc2c(cc1-c1cccc(N*)c1)-c1c(c(C(=O)N3CCOCC3(C)C)nn1-c1cc(Cl)cc(Cl)c1)CO2; DOTA = O=C(O)CN1CCN(CC(=O)O)CCN(CC(=O)*)CCN(CC(=O)O)CC1; Suc = O=C(CCC(=O)[*:2])[*:1]
# Target: T1, human follicle-stimulating hormone receptor (FSHR) (Homo sapiens, UniProt P23945)
# T1 construct: host or cells: CHO-K1
# T1 sequence (P23945 18-695): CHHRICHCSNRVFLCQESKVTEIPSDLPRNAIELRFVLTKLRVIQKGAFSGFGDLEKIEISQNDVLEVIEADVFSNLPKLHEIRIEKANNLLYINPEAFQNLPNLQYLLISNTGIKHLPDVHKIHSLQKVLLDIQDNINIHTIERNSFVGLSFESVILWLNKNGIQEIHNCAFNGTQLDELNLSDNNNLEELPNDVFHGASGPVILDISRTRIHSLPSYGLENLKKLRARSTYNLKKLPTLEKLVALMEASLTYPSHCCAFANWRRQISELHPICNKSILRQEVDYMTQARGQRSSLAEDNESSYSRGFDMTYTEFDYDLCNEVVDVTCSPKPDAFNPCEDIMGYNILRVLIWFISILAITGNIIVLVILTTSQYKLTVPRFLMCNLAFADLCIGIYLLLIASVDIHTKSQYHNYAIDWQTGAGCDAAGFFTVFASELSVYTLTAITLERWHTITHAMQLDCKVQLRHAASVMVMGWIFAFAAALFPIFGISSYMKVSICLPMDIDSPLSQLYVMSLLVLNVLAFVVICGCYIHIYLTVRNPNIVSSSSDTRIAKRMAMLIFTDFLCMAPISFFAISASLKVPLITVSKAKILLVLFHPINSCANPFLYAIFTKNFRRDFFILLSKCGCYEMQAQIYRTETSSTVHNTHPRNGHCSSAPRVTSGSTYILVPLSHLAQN
# Assay: Measurement of agonist cAMP production by activation of human FSHR
# Assay type: cell-based
# Settings: CHO-K1 human FSHR cells, 30 minutes at 37° C., HTRF cAMP kit; read-out: hFSHR Agonist cAMP EC50
# Experimental: Measurement of agonist cAMP production by activation of human FSHR
# Two days prior to the assay, 5,000 CHO—K1 human FSHR cells (Eurofins #95-0119C2) stably expressing the functional human follicle-stimulating hormone receptor were plated in a 96-well tissue culture-treated plate in growth media supplemented with the appropriate selection agent. […] The cells were incubated for 30 minutes at 37° C. (the final concentrations of the compound ranged from 0-10,000 nM). After the 30-minute incubation at 37° C., lysis buffer (HRTF CAMP kit, Cisbio #62AM5PEB)w as added directly to the cells and incubated for 30-minutes at room temperature. The diluted lysate was transferred and CAMP detection and visualization antibodies (HRTF CAMP kit, Cisbio #62AM5PEB) were added and incubated for 1-24 hours at room temperature. The time-resolved fluorescent signal was read with a Tecan M1000Pro (Tecan) multiplate reader. The intracellular cAMP concentrations were calculated by regression to a standard curve and were plotted vs. the concentration of the agonists. The concentration of test compound or FSH required to generate a half maximal response EC50 were calculated using standard curve-fitting methods. All data manipulations were performed using GraphPad Prism v9.3.1 (GraphPad, San Diego, CA).
row,EC50 [nM],Compound
1,> 100,"COc1cc2c(cc1-c1cncc(NC(=O)CCC(=O)NC[C@H](NC(=O)CN3CCN(CC(=O)O)CCN(CC(=O)O)CCN(CC(=O)O)CC3)C(=O)N3CCN(CCS(=O)(=O)O)CC3)c1)-c1c(c(C(=O)N3CCOCC3(C)C)nn1-c1cc(F)cc(F)c1)CO2 [Compound 49, (S)-2,2′,2″-(10-(2-((3-(4-((5-(1-(3,5-difluorophenyl)-3-(3,3-dimethylmorpholine-4-carbonyl)-7-methoxy-1,4-dihydrochromeno[4,3-c]pyrazol-8-yl)pyridin-3-yl)amino)-4-oxobutanamido)-1-oxo-1-(4-(2-sulfoethyl)piperazin-1-yl)propan-2-yl)amino)-2-oxoethyl)-1,4,7,10-tetraazacyclododecane-1,4,7-triyl)triacetic acid--formic acid (1/1)]"
2,< 10,"COc1cc2c(cc1-c1cccc(NC(=O)CCOCCOCCOCCOCCNC(=O)[C@@H](CS(=O)(=O)O)NC(=O)CN3CCN(CC(=O)O)CCN(CC(=O)O)CCN(CC(=O)O)CC3)c1)-c1c(c(C(=O)N3CCOCC3(C)C)nn1-c1cc(Cl)cc(Cl)c1)CO2 [Compound 26, (S)-2,2′,2″-(10-(21-((3-(1-(3,5-dichlorophenyl)-3-(3,3-dimethylmorpholine-4-carbonyl)-7-methoxy-1,4-dihydrochromeno[4,3-c]pyrazol-8-yl)phenyl)amino)-2,5,21-trioxo-4-(sulfomethyl)-9,12,15,18-tetraoxa-3,6-diazahenicosyl)-1,4,7,10-tetraazacyclododecane-1,4,7-triyl)triacetic acid]"
3,10 to 100,COc1cc2c(cc1-c1cncc(NC(=O)CCNC(=O)[C@@H](CC(=O)O)NC(=O)[C@@H](CC(=O)O)NC(=O)CC[C@@H](NC(=O)CN3CCN(CC(=O)O)CCN(CC(=O)O)CCN(CC(=O)O)CC3)C(=O)O)c1)-c1c(c(C(=O)N3CCOCC3(C)C)nn1-c1cc(Cl)cc(Cl)c1)CO2 [Compound 93]
4,10 to 100,"COc1cc2c(cc1-c1cncc(NC(=O)CCCNC(=O)[C@H](N)CCCCNC(=O)CN3CCN(CC(=O)O)CCN(CC(=O)O)CCN(CC(=O)O)CC3)c1)-c1c(c(C(=O)N3CCOCC3(C)C)nn1-c1cc(F)cc(F)c1)CO2 [Compound 58, (R)-2,2′,2″-(10-(2-((5-amino-6-((4-((5-(1-(3,5-difluorophenyl)-3-(3,3-dimethylmorpholine-4-carbonyl)-7-methoxy-1,4-dihydrochromeno[4,3-c]pyrazol-8-yl)pyridin-3-yl)amino)-4-oxobutyl)amino)-6-oxohexyl)amino)-2-oxoethyl)-1,4,7,10-tetraazacyclododecane-1,4,7-triyl)triacetic acid--2,2,2-trifluoroacetic acid (1/1)]"
5,10 to 100,"COc1cc2c(cc1-c1cccc(NC(=O)C[C@@H](N)C(=O)NC3CCN(C(=O)CN4CCN(CC(=O)O)CCN(CC(=O)O)CCN(CC(=O)O)CC4)CC3)c1)-c1c(c(C(=O)N3CCOCC3(C)C)nn1-c1cc(Cl)cc(Cl)c1)CO2 [Compound 12, (R)-2,2′,2″-(10-(2-(4-(2-amino-4-((3-(1-(3,5-dichlorophenyl)-3-(3,3-dimethylmorpholine-4-carbonyl)-7-methoxy-1,4-dihydrochromeno|4,3-clpyrazol-8-yl)phenyl)amino)-4-oxobutanamido)piperidin-1-yl)-2-oxoethyl)-1,4,7,10-tetraazacyclododecane-1,4,7-triyl)triacetic acid]"
6,10 to 100,COc1cc2c(cc1-c1cccc(NC(=O)CONC(=O)CN3CCN(CC(=O)O)CCN(CC(=O)O)CCN(CC(=O)O)CC3)c1)-c1c(c(C(=O)N3CCOCC3(C)C)nn1-c1cc(Cl)cc(Cl)c1)CO2 [Compound 43]
7,10 to 100,COc1cc2c(cc1-c1cccc(NC(=O)CCC(=O)NCCCC[C@@H](NC(=O)[C@@H](C)NC(=O)[C@@H](C)NC(=O)[C@@H](CC(N)=O)NC(=O)[C@@H](CC(=O)O)NC(=O)[C@@H](CCCNC(=N)N)NC(=O)[C@@H](C)NC(=O)CN3CCN(CC(=O)O)CCN(CC(=O)O)CCN(CC(=O)O)CC3)C(N)=O)c1)-c1c(c(C(=O)N3CCOCC3(C)C)nn1-c1cc(Cl)cc(Cl)c1)CO2 [Compound 91] ({DOTA}-[dA][dR][dD][dN][dA][dA][dK]([Suc-X1])-NH2)
8,10 to 100,COc1cc2c(cc1-c1cccc(NC(=O)CCC(=O)NCCCC[C@@H](NC(=O)[C@@H](CO)NC(=O)[C@@H](CC(N)=O)NC(=O)[C@@H](CO)NC(=O)[C@@H](CC(N)=O)NC(=O)[C@@H](C)NC(=O)CN3CCN(CC(=O)O)CCN(CC(=O)O)CCN(CC(=O)O)CC3)C(=O)N[C@H](C)C(N)=O)c1)-c1c(c(C(=O)N3CCOCC3(C)C)nn1-c1cc(Cl)cc(Cl)c1)CO2 [Compound 85] ({DOTA}-[dA][dN][dS][dN][dS][dK]([Suc-X1])[dA]-NH2)
9,10 to 100,"COc1cc2c(cc1-c1cccc(NC(=O)CCOCC(COCCC(=O)O)(COCCC(=O)O)NC(=O)CN3CCN(CC(=O)O)CCN(CC(=O)O)CCN(CC(=O)O)CC3)c1)-c1c(c(C(=O)N3CCOCC3(C)C)nn1-c1cc(Cl)cc(Cl)c1)CO2 [Compound 47, 2,2′,2″-(10-(2-((1,3-bis(2-carboxyethoxy)-2-((3-((3-(1-(3,5-dichlorophenyl)-3(3,3-dimethylmorpholine-4-carbonyl)-7-methoxy-1,4-dihydrochromeno|4,3-clpyrazol-8-yl)phenyl)amino)-3-oxopropoxy)methyl)propan-2-yl)amino)-2-oxoethyl)-1,4,7,10-tetraazacyclododecane-1,4,7-triyl)triacetic acid]"
10,10 to 100,COc1cc2c(cc1-c1cccc(NC(=O)CCC(=O)NCCCC[C@@H](NC(=O)[C@@H](CCC(=O)O)NC(=O)[C@@H](CCC(=O)O)NC(=O)[C@@H](C)NC(=O)CN3CCN(CC(=O)O)CCN(CC(=O)O)CCN(CC(=O)O)CC3)C(=O)N[C@H](CCC(=O)O)C(=O)N[C@H](CCC(=O)O)C(=O)N[C@H](C)C(N)=O)c1)-c1c(c(C(=O)N3CCOCC3(C)C)nn1-c1cc(Cl)cc(Cl)c1)CO2 [Compound 88] ({DOTA}-[dA][dE][dE][dK]([Suc-X1])[dE][dE][dA]-NH2)
11,10 to 100,COc1cc2c(cc1-c1cncc(OCCCNC(=O)[C@@H](CCC(=O)O)NC(=O)CCNC(=O)CN3CCN(CC(=O)O)CCN(CC(=O)O)CCN(CC(=O)O)CC3)c1)-c1c(c(C(=O)N3CCCN(C(=O)C4CCC4)CC3)nn1-c1cccs1)CO2 [Compound 77]
12,10 to 100,"COc1cc2c(cc1-c1cccc(NC(=O)CCC(=O)NCCCC[C@@H](NC(=O)[C@@H](CCC(=O)O)NC(=O)[C@@H](CCCNC(=N)N)NC(=O)[C@@H](CCC(=O)O)NC(=O)[C@@H](CCCNC(=N)N)NC(=O)[C@@H](C)NC(=O)CN3CCN(CC(=O)O)CCN(CC(=O)O)CCN(CC(=O)O)CC3)C(=O)N[C@H](C)C(N)=O)c1)-c1c(c(C(=O)N3CCOCC3(C)C)nn1-c1cc(Cl)cc(Cl)c1)CO2 [Compound 84, 2,2′,2″-(10-((4R,7R,10R,13R,16R,19R)-19-(((R)-1-amino-1-oxopropan-2yl)carbamoyl)-10,16-bis(2-carboxyethyl)-28-((3-(1-(3,5-dichlorophenyl)-3-(3,3-dimethylmorpholine-4-carbonyl)-7-methoxy-1,4-dihydrochromeno|4,3-clpyrazol-8-yl)phenyl)amino)-7,13-bis(3-guanidinopropyl)-4-methyl-2,5,8,11,14,17,25,28-octaoxo-3,6,9,12,15,18,24-heptaazaoctacosyl)-1,4,7,10-tetraazacyclododecane-1,4,7-triyl)triacetic acid] ({DOTA}-[dA][dR][dE][dR][dE][dK]([Suc-X1])[dA]-NH2)"
13,< 10,"COc1cc2c(cc1-c1cccc(NC(=O)CCOCCOCCOCCOCCNC(=O)[C@@H](CCC(=O)O)NC(=O)CN3CCN(CC(=O)O)CCN(CC(=O)O)CCN(CC(=O)O)CC3)c1)-c1c(c(C(=O)N3CCOCC3(C)C)nn1-c1cc(Cl)cc(Cl)c1)CO2 [Compound 27, (R)-2,2′,2″-(10-(4-(2-carboxyethyl)-21-((3-(1-(3,5-dichlorophenyl)-3-(3,3-dimethylmorpholine-4-carbonyl)-7-methoxy-1,4-dihydrochromeno|4,3-clpyrazol-8-yl)phenyl)amino)-2,5,21-trioxo-9,12,15,18-tetraoxa-3,6-diazahenicosyl)-1,4,7,10-tetraazacyclododecane-1,4,7-triyl)triacetic acid]"

# Same assay, conditions: hFSHR Agonist cAMP EC50, CHO-K1 human FSHR cells, 30 minutes at 37° C., HTRF cAMP kit
row,Compound,EC50 [nM]
1,COc1cc2c(cc1-c1cccc(NC(=O)CCC(=O)NC3CCN(C(=O)CN4CCN(CC(=O)O)CCN(CC(=O)O)CCN(CC(=O)O)CC4)CC3)c1)-c1c(c(C(=O)N3CCOCC3(C)C)nn1-c1cc(Cl)cc(Cl)c1)CO2 [Compound 11],< 10
